ChEMBL document CHEMBL5370544, “Design, synthesis, and biological evaluation of 1-styrenyl isoquinoline derivatives for anti-hepatocellular carcinoma activity and effect on mitochondria” (Eur J Med Chem, 2023)
Activity calls are given as the source filed them.

Experiments:
Huh-7 [1] = experiment: Antiproliferative activity against human Huh-7 cells assessed as inhibition of cell growth upto 2 uM by MTT assay; format: functional, cell-based; settings: time 72.0 hrs, TDE = time-dependent effect
SK-HEP1 [2] = experiment: Inhibition of colony formation in human SK-HEP1 cells assessed as reduction in number of cell colonies at 1.25 to 5 uM measured after 10 and 14 days by crystal violet staining based light microscopic analysis; format: functional; settings: dose 1.25-5 µM, time 14.0 day
Huh-7 [3] = experiment: Antiproliferative activity against human Huh-7 cells assessed as reduction in ratio of EdU-positive cells measured after 24 hrs by EdU incorporation assay; format: functional, cell-based; settings: dose 0.55-2.2 µM
Huh-7 [4] = experiment: Induction of cell cycle arrest in human Huh-7 cells assessed as increase in accumulation of cells at G2/M phase incubated for 24 hrs by propidium iodide staining based flow cytometry analysis; format: functional; settings: dose 0.9-8.1 µM
SK-HEP1 [5] = experiment: Induction of cell cycle arrest in human SK-HEP1 cells assessed as decrease in accumulation of cells at G0/G1 phase incubated for 24 hrs by propidium iodide staining based flow cytometry analysis; format: functional; settings: dose 1.5-13.5 µM
Huh-7 [6] = experiment: Induction of cell cycle arrest in human Huh-7 cells assessed as decrease in CDK1 expression incubated for 48 hrs by Western blotting analysis; format: functional, cell-based; settings: dose 0.9-8.1 µM
Huh-7 [7] = experiment: Inhibition of cell migration in human Huh-7 cells incubated for 24 hrs by scratch wound healing assay; format: functional, cell-based; settings: dose 0.55-2.2 µM
SK-HEP1 [8] = experiment: Inhibition of cell migration in human SK-HEP1 cells incubated for 24 hrs by scratch wound healing assay; format: functional, cell-based; settings: dose 1.25-5 µM
Huh-7 [9] = experiment: Inhibition of cell migration in human Huh-7 cells at 0.55 to 2.2 uM incubated for 24 hrs by crystal violet staining based transwell migration assay; format: functional; settings: dose 0.55-2.2 µM
Huh-7 [10] = experiment: Antimigratory activity against human Huh-7 cells assessed as up-regulation of E-cadherin expression at 0.55 to 2.2 uM incubated 24 hrs by Western blotting analysis; format: functional, cell-based; settings: dose 0.55-2.2 µM
Huh-7 [11] = experiment: Induction of apoptosis in human Huh-7 cells assessed as genomic DNA fragmentation at 0.9 to 8.1 uM incubated for 24 hrs by giemsa staining based micrscopic analysis; format: functional, cell-based; settings: dose 0.9-8.1 µM
SK-HEP1 [12] = experiment: Induction of apoptosis in human SK-HEP1 cells assessed as cell membrane blebbing at 1.5 to 13.5 uM incubated for 24 hrs by giemsa staining based micrscopic analysis; format: functional; settings: dose 1.5-13.5 µM
Huh-7 [13] = experiment: Induction of apoptosis in human Huh-7 cells assessed as increase in proportion of early apoptosis at 0.9 to 8.1 uM incubated for 24 hrs by Annexin V-AbFluor 488/propidium iodide staining based flow cytometry analysis; format: functional, cell-based; settings: dose 0.9-8.1 µM
SK-HEP1 [14] = experiment: Induction of apoptosis in human SK-HEP1 cells assessed as increase in proportion of early apoptosis at 1.5 to 13.5 uM incubated for 24 hrs by Annexin V-AbFluor 488/propidium iodide staining based flow cytometry analysis; format: functional, cell-based; settings: dose 1.5-13.5 µM
Huh-7 [15] = experiment: Induction of apoptosis in human Huh-7 cells assessed as increase in proportion of late apoptosis at 0.9 to 8.1 uM incubated for 24 hrs by Annexin V-AbFluor 488/propidium iodide staining based flow cytometry analysis; format: functional, cell-based; settings: dose 0.9-8.1 µM
SK-HEP1 [16] = experiment: Induction of apoptosis in human SK-HEP1 cells assessed as increase in proportion of late apoptosis at 1.5 to 13.5 uM incubated for 24 hrs by Annexin V-AbFluor 488/propidium iodide staining based flow cytometry analysis; format: functional, cell-based; settings: dose 1.5-13.5 µM
SK-HEP1 [17] = experiment: Induction of mitochondrial membrane potential depolarization in human SK-HEP1 cells incubated for 24 hrs by TMRE staining based flow cytometry analysis; format: functional, cell-based; settings: dose 1.5-13.5 µM
Huh-7 [18] = experiment: Induction of ROS production in human Huh-7 cells assessed as increase in intracellular ROS level at 0.9 to 8.1 uM incubated for 24 hrs by DCFH-DA staining based fluorescence assay; format: functional, cell-based; settings: dose 0.9-8.1 µM
SK-HEP1 [19] = experiment: Induction of ROS production in human SK-HEP1 cells assessed as increase in intracellular ROS level at 1.5 to 13.5 uM incubated for 24 hrs by DCFH-DA staining based fluorescence assay; format: functional, cell-based; settings: dose 1.5-13.5 µM
Huh-7 [20] = experiment: Induction of apoptosis in human Huh-7 cells assessed as inhibition of caspase-3 expression incubated for 48 hrs by Western blotting analysis; format: functional, cell-based; settings: dose 0.9-8.1 µM
Huh-7 [21] = experiment: Induction of apoptosis in human Huh-7 cells assessed as inhibition of caspase-9 expression incubated for 48 hrs by Western blotting analysis; format: functional, cell-based; settings: dose 0.9-8.1 µM
Huh-7 [22] = experiment: Induction of apoptosis in human Huh-7 cells assessed as increase in Bax expression at 0.9 to 8.1 uM incubated for 48 hrs by Western blotting analysis; format: functional, cell-based; settings: dose 0.9-8.1 µM
Huh-7 [23] = experiment: Induction of apoptosis in human Huh-7 cells assessed as increase in cytochrome-C expression at 0.9 to 8.1 uM incubated for 48 hrs by Western blotting analysis; format: functional, cell-based; settings: dose 0.9-8.1 µM
Huh-7 [24] = experiment: Induction of apoptosis in human Huh-7 cells assessed as increase in cleaved caspase-3 expression at 0.9 to 8.1 uM incubated for 48 hrs by Western blotting analysis; format: functional, cell-based; settings: dose 0.9-8.1 µM
SK-HEP1 [25] = experiment: Induction of apoptosis in human SK-HEP1 cells assessed as inhibition of Bcl-2 expression incubated for 48 hrs by Western blotting analysis; format: functional, cell-based; settings: dose 1.5-13.5 µM
SK-HEP1 [26] = experiment: Induction of apoptosis in human SK-HEP1 cells assessed as inhibition of caspase-3 expression incubated for 48 hrs by Western blotting analysis; format: functional, cell-based; settings: dose 1.5-13.5 µM
SK-HEP1 [27] = experiment: Induction of apoptosis in human SK-HEP1 cells assessed as inhibition of caspase-9 expression incubated for 48 hrs by Western blotting analysis; format: functional, cell-based; settings: dose 1.5-13.5 µM
SK-HEP1 [28] = experiment: Induction of apoptosis in human SK-HEP1 cells assessed as increase in Bax expression at 1.5 to 13.5 uM incubated for 48 hrs by Western blotting analysis; format: functional, cell-based; settings: dose 1.5-13.5 µM
SK-HEP1 [29] = experiment: Induction of apoptosis in human SK-HEP1 cells assessed as increase in cytochrome-C expression at 1.5 to 13.5 uM incubated for 48 hrs by Western blotting analysis; format: functional, cell-based; settings: dose 1.5-13.5 µM
[30] = target: Serine/threonine-protein kinase mTOR (Homo sapiens) (UniProt P42345); experiment: Inhibition of mTOR signalling pathway in human Huh-7 cells assessed as inhibition of mTOR phosphorylation at 0.9 to 8.1 uM measured after 48 hrs by Western blotting analysis; format: cell-based; settings: dose 0.9-8.1 µM
SK-HEP1 [31] = experiment: Inhibition of PI3K signalling pathway in human SK-HEP1 cells assessed as inhibition of PI3K phosphorylation at 1.5 to 13.5 uM measured after 48 hrs by Western blotting analysis; format: cell-based; settings: dose 1.5-13.5 µM
[32] = target: Serine/threonine-protein kinase mTOR (Homo sapiens) (UniProt P42345); experiment: Inhibition of mTOR signalling pathway in human SK-HEP1 cells assessed as inhibition of mTOR phosphorylation at 1.5 to 13.5 uM measured after 48 hrs by Western blotting analysis; format: cell-based; settings: dose 1.5-13.5 µM
Huh-7 [33] = experiment: Antitumor activity against human Huh-7 cells xenografted in BALB/c mouse assessed as tumor growth inhibition at 15 mg/kg, ip qd measured after 14 days; format: functional; settings: Huh-7, 336 h, time 14 day, read-out: TGI
Huh-7 [34] = experiment: Antitumor activity against human Huh-7 cells xenografted in BALB/c mouse assessed as tumor growth inhibition at 30 mg/kg, ip qd measured after 14 days; format: functional; settings: Huh-7, 336 h, time 14 day, read-out: TGI
[35] = Acute toxicity in BALB/c mouse assessed as mouse survival at 650 mg/kg, ip measured after 14 days; format: organism-based; settings: in vivo, 336 h, time 14 day

CC(=O)Oc1ccccc1/C=C/c1nccc2ccccc12
41.4%: inhibition in vivo at 30 mg/kg (Huh-7 [34])
27.4%: inhibition in vivo at 15 mg/kg (Huh-7 [33])
Non-Toxic: Activity [35]
active: Activity (Huh-7 [1]) Tde | inhibition (SK-HEP1 [2]) | Activity (Huh-7 [3]) Dose-Dependent Effect | Activity (Huh-7 [4]) Dose-Dependent Effect | Activity (SK-HEP1 [5]) Dose-Dependent Effect | Activity (Huh-7 [6]) Dose-Dependent Effect | inhibition (Huh-7 [7]) Dose-Dependent Effect | inhibition (SK-HEP1 [8]) Dose-Dependent Effect | inhibition (Huh-7 [9]) | Activity (Huh-7 [10]) | Activity (Huh-7 [11]) | Activity (SK-HEP1 [12]) | Activity (Huh-7 [13]) | Activity (SK-HEP1 [14]) | Activity (Huh-7 [15]) | Activity (SK-HEP1 [16]) | Activity (SK-HEP1 [17]) Dose-Dependent Effect | Activity (Huh-7 [18]) | Activity (SK-HEP1 [19]) | Activity (Huh-7 [20]) Dose-Dependent Effect | Activity (Huh-7 [21]) Dose-Dependent Effect | Activity (Huh-7 [22]) | Activity (Huh-7 [23]) | Activity (Huh-7 [24]) | Activity (SK-HEP1 [25]) Dose-Dependent Effect | Activity (SK-HEP1 [26]) Dose-Dependent Effect | Activity (SK-HEP1 [27]) Dose-Dependent Effect | Activity (SK-HEP1 [28]) | Activity (SK-HEP1 [29]) | Activity [30] | inhibition (SK-HEP1 [31]) | inhibition [32]
